Target: T1, KRAS G12C 1-169, his-tagged protein, GDP-loaded (Homo sapiens, UniProt P01116, G12C)
T1 construct: KRAS G12C 1-169, his-tagged protein, GDP-loaded
Experiment: Biochemical assay: covalent modification of KRAS G12C measured by mass spectrometry (RapidFire/TOF or Q-Exactive)
Format: binding
Settings: tested at 32 μM
Description: Test compounds were prepared as 10 mM stock solutions in DMSO (Fisher cat. #BP-231-100). KRAS G12C 1-169, his-tagged protein, GDP-loaded is diluted to 2 μM or 0.5 μM in buffer (20 mM Hepes, 150 mM NaCl, 1 mM MgCl2). Compounds were tested for activity as follows:
Compounds were diluted to 50× final test concentration in DMSO in 96-well storage plates. Compound stock solutions were vortexed before use and observed cwerefully for any sign of precipitation. Dilutions were as follow: • For 32 μM final compound concentration, compounds were diluted to 1600 μM (3 μL 10 mM compound stock +15.75 μL DMSO and mixed well by pipetting. • For 8 μM final compound concentration, compounds were diluted to 400 μM (2 μL 10 mM compound stock +48 μL DMSO) and mixed well by pipetting. 49 μL of the stock protein solution was added to each well of a 96-well PCR plate (Fisher cat#1423027). 1 μl of the diluted 50× compounds were added to appropriate wells in the PCR plate using 12-channel pipettor. Reactions were mixed carefully and thoroughly by pipetting up/down with a 200 μL multi-channel pipettor. The plate was sealed well with aluminum plate seal, and protein and compound were allowed to react for a desired amount of time. 5 μL of 2% formic acid (Fisher cat#A117) in de-ionized H2O was then added to each well followed by mixing with a pipette to quench the reaction. The plate was then resealed with aluminum seal and stored frozen on dry ice until analyzed as described below.
The above described assays were analyzed by mass spectrometry according to one of the following two procedures:
The MS instrument was set to positive polarity, 2 GHz resolution, and low mass (1700) mode and allowed to equilibrate for 30 minutes. The instrument was then calibrated, switched to acquisition mode and the appropriate method loaded.
After another 30 minute equilibration time, a blank batch (i.e., buffer) was run to ensure equipment is operating properly. The samples were thawed at 37° C. for 10 minutes, briefly centrifuged, and transfered to the bench top. Wells A1 and H12 were spiked with 1 μL 500 μM internal standard peptide, and the plates centrifuged at 2000×g for 5 minutes. The method was then run and masses of each individual well recorded.
The masses (for which integration data is desired) for each well were pasted into the platemap and exported from the analysis. Masses for the internal standards were exported as well. The data at 50 ppm was extracted for the +19 charge state, and identity of well A1 was assigned using the internal standard spike and integrated. Peak data was exported as a TOF list and the above steps were repeated individually, for the +20, +21, +22, +23, +24, and +25 charge states.
The masses and peak intensities of KRAS G12C protein species were measured using a Dionex RSLCnano system (Thermo Scientific) connected to a Q Exactive Plus mass spectrometer (Thermo Scientific).
20 μL of sample was loaded onto a Aeris™ 3.6 μm WIDEPORE C4 200 Å, LC Column 50×2.1 mm column maintained at 40° C. at a flow rate of 600 μL/min with 80% Solvent A (0.1% formic acid in H2O) and 20% Solvent B (0.1% formic acid in acetonitrile). The liquid chromatography conditions were 20% solvent B for 1 minute, 20% to 60% solvent B for 1.5 minutes, 60% to 90% solvent for 0.5 minute, 90% solvent B for 0.2 minute, 90% to 20% solvent B for 0.2 minute, and then equilibrated for 1.6 minute before the following sample injection. The flow rate was maintained at 600 μL/min throughout the sample analysis.
The mass spectrometer was operated in profile mode at a resolution of 17500, 5 microscans, using 50 msec max injection time and an AGC target of 1×10^6, and a full mass range from 800-1850 m/z was recorded. The intact protein mode was applied for optimal ion transfer and maximum sensitivity. The ionization method was electrospray ionization, which used a spray voltage of 4 kV, sheath gas flow set to 50 AU, auxiliary gas flow set to 10 AU and sweep gas flow set to 1 AU. […]

Structure (SMILES)	Bind %
C=CC(=O)N1CC2(CCN(c3ccc(F)c(-c4c(C)ccc5[nH]ncc45)c3C#N)CC2)C1 (atropisomer, axis not shown) [Compound I-140, (R)-6-(2-acryloyl-2,7-diazaspiro[3.5]nonan-7-yl)-3-fluoro-2-(5-methyl-1H-indazol-4-yl)benzonitrile]	+ (+ indicates binding activity greater than 0% and up to 50%)
C=CC(=O)N1CC2(CCN(c3ccc(F)c(-c4c(C)ccc5[nH]ncc45)c3C#N)CC2)C1 (atropisomer, axis not shown) [Compound I-141, (S)-6-(2-acryloyl-2,7-diazaspiro[3.5]nonan-7-yl)-3-fluoro-2-(5-methyl-1H-indazol-4-yl)benzonitrile]	+ (+ indicates binding activity greater than 0% and up to 50%)
C=CC(=O)N1CC2(CCN(c3cccc(-c4c(C)ccc5[nH]ncc45)c3C#N)C2)C1 [Compound I-1, 2-(2-acryloyl-2,6-diazaspiro[3.4]octan-6-yl)-6-(5-methyl-1H-indazol-4-yl)benzonitrile]	+++ (+++ indicates binding activity greater than 75%)
C=CC(=O)N1CC2(CCN(c3cccc(-c4c(C)ccc5[nH]ncc45)c3OC)C2)C1 [Compound I-2, 1-(6-(2-methoxy-3-(5-methyl-1H-indazol-4-yl)phenyl)-2,6-diazaspiro[3.4]octan-2-yl)prop-2-en-1-one]	+ (+ indicates binding activity greater than 0% and up to 50%)
C=CC(=O)N1CC2(CCN(c3cccc(-c4c(C)ccc5cnn(C)c45)c3F)C2)C1 [Compound I-3, 1-(6-(3-(1,6-dimethyl-1H-indazol-7-yl)-2-fluorophenyl)-2,6-diazaspiro[3.4]octan-2-yl)prop-2-en-1-one]	+ (+ indicates binding activity greater than 0% and up to 50%)
CC#CC(=O)N1CC2(CCN(c3cccc(-c4c(C)ccc5[nH]ncc45)c3C#N)C2)C1 [Compound I-4, 2-(2-(but-2-ynoyl)-2,6-diazaspiro[3.4]octan-6-yl)-6-(5-methyl-1H-indazol-4-yl)benzonitrile]	+ (+ indicates binding activity greater than 0% and up to 50%)
C=CC(=O)N1CC2(CCN(c3cccc(-c4c(C)ccc5cnn(C)c45)c3OC)C2)C1 [Compound I-5, 1-(6-(3-(1,6-dimethyl-1H-indazol-7-yl)-2-methoxyphenyl)-2,6-diazaspiro[3.4]octan-2-yl)prop-2-en-1-one]	++ (++ indicates binding activity from 50 to 75%)
C=CC(=O)N1CCC2(CCN(c3cccc(-c4c(O)cccc4F)c3C#N)C2)C1 (centres unmarked) [Compound I-6, 3-(7-acryloyl-2,7-diazaspiro[4.4]nonan-2-yl)-2′-fluoro-6′-hydroxy-[1,1′-biphenyl]-2-carbonitrile]	+ (+ indicates binding activity greater than 0% and up to 50%)

Same assay, conditions: tested at a concentration of 8 μM

Structure (SMILES)	Bind %
C=CC(=O)N1CC2(CCN(c3ccc(F)c(-c4c(C)ccc5[nH]ncc45)c3C#N)C2)C1 (atropisomer, axis not shown) [Compound I-43, (R)-6-(2-acryloyl-2,6-diazaspiro[3.4]octan-6-yl)-3-fluoro-2-(5-methyl-1H-indazol-4-yl)benzonitrile]	+++ (+++ indicates binding activity greater than 75%)
C=CC(=O)N1CC2(CCN(c3ccc(F)c(-c4c(C)ccc5cnn(C)c45)c3C#N)C2)C1 (atropisomer, axis not shown) [Compound I-44, (S)-6-(2-acryloyl-2,6-diazaspiro[3.4]octan-6-yl)-2-(1,6-dimethyl-1H-indazol-7-yl)-3-fluorobenzo-nitrile]	+++ (+++ indicates binding activity greater than 75%)
C=CC(=O)N1CC2(CCN(c3ccc(F)c(-c4c(C)ccc5cnn(C)c45)c3C#N)C2)C1 (atropisomer, axis not shown) [Compound I-45, (R)-6-(2-acryloyl-2,6-diazaspiro[3.4]octan-6-yl)-2-(1,6-dimethyl-1H-indazol-7-yl)-3-fluorobenzo-nitrile]	+ (+ indicates binding activity greater than 0% and up to 50%)
